{"source": "patent US20030109582A1", "about": "“Methods and compositions for stimulating secretions from paneth cells” (priority 2001, published 2003)", "key": {"Crohn's disease patients": {"system": "Crohn's disease patients", "experiment": "L-isoleucine administration to Crohn's disease patients (CDAI, abdominal symptoms)", "type": "in vivo, human", "settings": "Four grams/day oral, 4 weeks", "method": "L-isoleucine was administered to nine volunteer Crohn's disease patients with mild abdominal symptoms. Four grams/day of powdered L-isoleucine divided into two doses was orally administered for 4 weeks. The CDAI (Crohn's disease activity index—Best W, Beckel J, Singleton J, Kern F J, Development of a Crohn's Disease Activity Index: National Cooperative Crohn's Disease Study. Gastroenterology 1976; 70:439-44) was calculated at the beginning and following the fourth week of the L-isoleucine administration period. All medication regiments were fixed throughout the study period."}, "[1]": {"system": "Human Paneth cells (isolated intact human crypts from ileum); secretions tested on Salmonella typhimurium phoP-", "experiment": "human Paneth cell secretion assay (bactericidal activity of crypt secretions)", "type": "cell-based", "settings": "for % Bacterial Cell Killing: S. typhimurium", "from_the_text": "An assay was developed utilizing Human Paneth cells, obtained from biopsy material. Substances were screened in vitro, by exposing the isolated human tissue material briefly, and assessing the release of antibiotic activity.\nA human Paneth cell secretion assay was developed using isolated intact human crypts from ileum obtained after bowel surgery, following published techniques. About 700 isolated crypts obtained by disruption with EDTA, as estimated using a hemocytometer, were transferred into microfuge tubes. Crypts were then incubated in minimal essential media containing non-essential amino acids, with or without various substances (such as isoleucine) in a total volume of 0.5 ml for 30 min or 1 hour at 37° C. After incubation the tissue suspension was spum, and the supernatants collected 10 microliter aliquots were then mixed with either 500 or 1000 colony forming units (cfu) of Salmonella typhimurium phoP- and incubated for 1 hour at 37° C. Surviving bacteria were quantitated by plating on nutrient agar. Bactericidal assays were conducted in triplicate. Data were expressed as the percent bacteria killed under experimental conditions relative to those recovered from controls."}, "fecal Lactobacilli": {"system": "fecal Lactobacilli", "experiment": "population density of viable Lactobacilli in stools of individuals with Crohn's disease", "type": "in vivo, human", "settings": "after 1 week of L-isoleucine administration (dosed as in Example 2) added to low-residual formula diet; 9 hospitalized Crohn's disease individuals", "method": "The population density of viable Lactobacilli in the stools of a group of 9 hospitalized individuals with Crohn's disease was measured before and after a course of L-isoleucine administration. Subjects in this group had been supported nutritionally exclusively by total parenteral nutrition (TPN) for more than one month. One week after a low-residual formula diet was introduced, L-isoleucine was added to the diet (dosed as in Example 2) during the fmal week of hospitalization. Yogurt and other fermented products were restricted as were antibiotics."}}}
{"smiles": "CC[C@H](C)[C@H](N)C(=O)O", "note": "[isoleucine, L(+)isoleucine]", "values": [{"measurement": "frequency of diarrhea", "setting": "Crohn's disease patients; Crohn's disease patients", "value": "gradually decreased"}, {"measurement": "stool consistency", "setting": "Crohn's disease patients; Crohn's disease patients", "value": "improved"}, {"measurement": "mean CDAI at fourth week", "setting": "Crohn's disease patients; two doses, nine Crohn's disease patients, mean CDAI at beginning 120", "value": 90}, {"measurement": "Bactericidal activity in secretions against S. typhimurium", "setting": "[1]; crypts exposed to 250 microgram/ml for 1 hour", "value": "detected"}, {"measurement": "% Bacterial Cell Killing", "setting": "[1]; crypts exposed to L(+)isoleucine 250 microgram/ml for 1 hour, relative to controls", "value": 63.7, "unit": "%"}, {"measurement": "Surviving Bacteria", "setting": "[1]; crypts exposed to L(+)isoleucine 250 microgram/ml for 1 hour, supernatant incubated with S. typhimurium 1 hour", "value": "140 ± 23"}, {"measurement": "isoleucine-induced secretion effect, dose dependence", "setting": "[1]; human Paneth cells, Salmonella typhimurium killing", "value": "dose dependent"}, {"measurement": "% Bacterial Cell Killing", "setting": "[1]; isoleucine 5 μg/ml, 30 minutes", "value": 4.1, "unit": "%"}, {"measurement": "% Bacterial Cell Killing", "setting": "[1]; isoleucine 50 μg/ml, 30 minutes", "value": 22.5, "unit": "%"}, {"measurement": "% Bacterial Cell Killing", "setting": "[1]; isoleucine 500 μg/ml, 30 minutes", "value": 51.7, "unit": "%"}, {"measurement": "mean concentration of fecal Lactobacilli", "setting": "fecal Lactobacilli", "value": "significantly increased"}]}
